Biological target: T1, ABCG2 (Homo sapiens, UniProt Q9UNQ0)
T1 sequence (Q9UNQ0 1-655): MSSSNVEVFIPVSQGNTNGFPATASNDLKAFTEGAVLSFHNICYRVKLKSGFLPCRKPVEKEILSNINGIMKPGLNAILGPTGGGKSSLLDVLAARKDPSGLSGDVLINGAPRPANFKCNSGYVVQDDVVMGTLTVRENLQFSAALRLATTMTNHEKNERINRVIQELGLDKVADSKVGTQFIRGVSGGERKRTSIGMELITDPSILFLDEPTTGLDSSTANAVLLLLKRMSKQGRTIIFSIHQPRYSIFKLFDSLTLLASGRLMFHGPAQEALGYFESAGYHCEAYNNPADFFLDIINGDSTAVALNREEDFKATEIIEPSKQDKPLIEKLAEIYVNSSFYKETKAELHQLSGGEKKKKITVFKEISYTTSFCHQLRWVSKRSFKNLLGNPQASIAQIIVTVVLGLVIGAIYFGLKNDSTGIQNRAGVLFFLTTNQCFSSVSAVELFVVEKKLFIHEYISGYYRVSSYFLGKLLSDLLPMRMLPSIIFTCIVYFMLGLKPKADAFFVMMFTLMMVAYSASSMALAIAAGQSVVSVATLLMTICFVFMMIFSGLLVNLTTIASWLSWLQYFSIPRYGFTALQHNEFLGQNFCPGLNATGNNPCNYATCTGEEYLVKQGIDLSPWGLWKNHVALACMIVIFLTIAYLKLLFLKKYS
Assay: inhibition of [3H]methotrexate transport in Sf9 membrane vesicles
Type: biochemical

Nc1nc(Cl)nc2c1ncn2[C@@H]1O[C@H](CO)[C@@H](O)[C@@H]1F [clofarabine]
IC50: ~14 µM

— article PMC3531552 (Cancer research, 2011)
